Literature values as cited in patent US20240050950A1, “GRADIENT-BASED MICROFLUIDIC CIRCUIT, DEVICE, AND METHOD FOR PERFORMING AN ASSAY” (priority 2020, published 2024).
Structures can show the parent of a compound that is named as a salt. Where two headings read alike, the source gives them in different places. Bridge positions count the residues as written; N and C are the ends. Square brackets hold non-standard residues; d marks the D form. Peptide text beside a SMILES is read from it. * marks the point of attachment. Ileψ(thiazoline)Cys = CC[C@H](C)[C@H](N)C1=N[C@H](C(=O)*)CS1; Phe(ol) = N[C@H](CO)Cc1ccccc1; dOrn = NCCC[C@@H](N)C(=O)O; Aib = CC(C)(N)C(=O)O

Details: cited from earlier work
[1] = Table 1, antimicrobial agents/drugs

SMILES	Molar volume [1] [cm^3]	Molar volume (Table 2, anticancer drugs) [cm^3]	also measured
CC(=O)NC(C)(C)C(=O)N1CCC[C@H]1C(=O)NC(C)(C)C(=O)N[C@@H](C)C(=O)NC(C)(C)C(=O)N[C@@H](C)C(=O)N[C@@H](CCC(N)=O)C(=O)NC(C)(C)C(=O)N[C@H](C(=O)NC(C)(C)C(=O)NCC(=O)N[C@@H](CC(C)C)C(=O)NC(C)(C)C(=O)N1CCC[C@H]1C(=O)N[C@H](C(=O)NC(C)(C)C(=O)NC(C)(C)C(=O)N[C@@H](CCC(=O)O)C(=O)N[C@@H](CCC(N)=O)C(=O)N[C@H](CO)Cc1ccccc1)C(C)C)C(C)C [Alamethicin] (Ac-[Aib]P[Aib]A[Aib]AQ[Aib]V[Aib]GL[Aib]PV[Aib][Aib]EQ[Phe(ol)])	1583.4 ± 3.0		
CC(C)Cn1cnc2c(N)nc3ccccc3c21 [Aldara (Imiquimod), Imiquimod]		187.7 ± 7.0	
Nc1nc2[nH]cc(CCc3ccc(C(=O)N[C@@H](CCC(=O)O)C(=O)O)cc3)c2c(=O)[nH]1 [Alimta (Pemetrexed Disodium), Pemetrexed Disodium]		268.0 ± 7.0	
COc1c(OCCCN2CCOCC2)ccc2c1N=C(NC(=O)c1cnc(N)nc1)N1CCN=C21 [Aliqopa (Copanlisib Hydrochloride), Copanlisib Hydrochloride]		317.6 ± 7.0	
O=C1c2cccc3c2[C@H](CCC3)CN1[C@@H]1CN2CCC1CC2 [Aloxi (Palonosetron Hydrochloride), Palonosetron Hydrochloride]		238.6 ± 5.0	
CC(C)C[C@@H](N)[C@H](O)C(=O)N[C@H](C(=O)N[C@H](C(=O)N[C@@H](CC(=O)O)C(=O)O)C(C)C)C(C)C [Amastatin]	386.4 ± 3.0		
NCCCNCCSP(=O)(O)O [Amifostine]		156.6 ± 3.0	
NCC[C@H](O)C(=O)N[C@@H]1C[C@H](N)[C@@H](O[C@H]2O[C@H](CN)[C@@H](O)[C@H](O)[C@H]2O)[C@H](O)[C@H]1O[C@H]1O[C@H](CO)[C@@H](O)[C@H](N)[C@H]1O [Amikacin]	363.9 ± 5.0		
CC1(C)S[C@@H]2[C@H](NC(=O)[C@H](N)c3ccc(O)cc3)C(=O)N2[C@H]1C(=O)O [Amoxicillin]	236.2 ± 5.0		
C[C@@H]1[C@H](O)[C@@H](C)/C=C/C=C/C=C/C=C/C=C/C=C/C=C/[C@H](O[C@@H]2O[C@H](C)[C@@H](O)[C@H](N)[C@@H]2O)C[C@@H]2O[C@](O)(C[C@@H](O)C[C@@H](O)[C@H](O)CC[C@@H](O)C[C@@H](O)CC(=O)O[C@H]1C)C[C@H](O)[C@H]2C(=O)O [Amphotericin B (Fungizone), Amphotericin B]	689.4 ± 5.0		
CC(C)(C#N)c1cc(Cn2cncn2)cc(C(C)(C)C#N)c1 [Anastrozole]		270.2 ± 7.0	
CC[C@H]1OC(=O)[C@H](C)[C@@H](O[C@H]2C[C@@](C)(OC)[C@@H](O)[C@H](C)O2)[C@H](C)[C@@H](O[C@@H]2O[C@H](C)C[C@H](N(C)C)[C@H]2O)[C@@]2(C)C[C@@H](C)[C@@]3(O[C@@]1(C)[C@H](O)[C@H]3C)O2 [Anhydroerythromycin A]	590.7 ± 5.0		
COc1ccc(C[C@H]2NC[C@H](O)[C@H]2OC(C)=O)cc1 [Anisomycin (or, Flagecidin), Anisomycin]	218.6 ± 5.0		
CNC(=O)c1ccc(N2C(=S)N(c3cnc(C#N)c(C(F)(F)F)c3)C(=O)C23CCC3)cc1F [Apalutamide]		300.1 ± 5.0	
C[C@@]1(CO)[C@H](O)CC[C@@]2(C)[C@H]1CC[C@H]1C[C@@H]3C[C@@]12CC[C@]3(O)CO [Aphidicolin]	275.9 ± 5.0		
COC[C@@H](C[C@H]1O[C@@](O)([C@H](O)[C@@H]2C[C@H](OC)[C@@H](O)CC/C=C(C)/C=C/[C@@H](O[C@@H]3O[C@@H](C)[C@H](OC)[C@@H](O)[C@@H]3O)[C@H](C)/C=C(C)/C=C(C)/C=C(\C)C(=O)O2)[C@H](C)[C@@H](O)[C@H]1C)OC1C[C@](C)(O)[C@@H](O[C@H]2C[C@@H](OC)[C@H](O)[C@@H](C)O2)[C@H](C)O1 (some centres unmarked) [Apoptolidin (FU 40A), Apoptolidin]	898.5 ± 5.0		
CN[C@@H]1[C@@H](O[C@H]2O[C@H](CO)[C@@H](N)[C@H](O)[C@H]2O)OC2C[C@@H](N)[C@@H](O[C@H]3[C@H](O)[C@@H](O)[C@H](N)C[C@@H]3N)OC2[C@@H]1O (some centres unmarked) [Apramycin (Nebramycin II), Apramycin]	344.4 ± 5.0		
C[C@@H](O[C@H]1OCCN(Cc2n[nH]c(=O)[nH]2)[C@H]1c1ccc(F)cc1)c1cc(C(F)(F)F)cc(C(F)(F)F)c1 [Aprepitant]		353.5 ± 7.0	
C=C1C[C@@H]2[C@H](CC[C@]3(C)C(=O)CC[C@@H]23)[C@@]2(C)C=CC(=O)C=C12 [Aromasin (Exemestane), Exemestane]		260.5 ± 5.0	
COc1nc(N)nc2c1ncn2[C@@H]1O[C@H](CO)[C@@H](O)[C@@H]1O [Arranon (Nelarabine), Nelarabine]		149.8 ± 7.0	
CC(/C=C/[C@@]1(C)[C@H](C)CCC(=O)[C@@H]1C)=C\Cc1c(O)c(Cl)c(C)c(C=O)c1O [Ascochlorin (Ilicicolin D, NSC 287492), Ascochlorin]	337.6 ± 3.0		
CC[C@@H]1/C=C(\C)C[C@H](C)C[C@H](OC)[C@H]2O[C@@](O)(C(=O)C(=O)N3CCCC[C@H]3C(=O)O[C@H](/C(C)=C/[C@@H]3CC[C@@H](O)[C@H](OC)C3)[C@H](C)[C@@H](O)CC1=O)[C@H](C)C[C@@H]2OC [Ascomycin (KD4185000), Ascomycin]	661.8 ± 5.0		

SMILES	Molar volume [1] [cm^3]	Molar volume (Table 2, anticancer drugs) [cm^3]	also measured
N=C(N)NCc1cccc([131I])c1 [Azedra]		148.6 ± 7.0	
CC[C@H]1OC(=O)[C@H](C)[C@@H](O[C@H]2C[C@@](C)(OC)[C@@H](O)[C@H](C)O2)[C@H](C)[C@@H](O[C@@H]2O[C@H](C)C[C@H](N(C)C)[C@H]2O)[C@](C)(O)C[C@@H](C)CN(C)[C@H](C)[C@@H](O)[C@]1(C)O [Azithromycin]	632.6 ± 5.0		
CC[C@H](C)[C@H](N)C1=N[C@H](C(=O)N[C@@H](CC(C)C)C(=O)N[C@H](CCC(=O)O)C(=O)N[C@H](C(=O)N[C@H]2CCCCNC(=O)[C@H](CC(N)=O)NC(=O)[C@@H](CC(=O)O)NC(=O)[C@H](Cc3cnc[nH]3)NC(=O)[C@@H](Cc3ccccc3)NC(=O)[C@H]([C@@H](C)CC)NC(=O)[C@@H](CCCN)NC2=O)[C@@H](C)CC)CS1 [Bacitracin] ({Ileψ(thiazoline)Cys}-L[dE]IK[dOrn]I[dF]H[dD]N; lactam 4-C)	994.4 ± 7.0		
CO/C1=C\C(C)=C\[C@@H](C)[C@@H](O)[C@@H](C)C/C(C)=C/C=C/[C@H](OC)[C@@H]([C@@H](C)[C@@H](O)[C@H](C)[C@@]2(O)C[C@@H](O)[C@H](C)[C@@H](C(C)C)O2)OC1=O [Bafilomycin A1 (4730700), Bafilomycin A1]	552.3 ± 5.0		
CO/C1=C\C(C)=C\[C@@H](C)[C@@H](O)[C@@H](C)C/C(C)=C/C=C/[C@H](OC)[C@@H]([C@@H](C)[C@@H](O)[C@H](C)[C@@]2(O)C[C@@H](OC(=O)/C=C/C(=O)NC3=C(O)CCC3=O)[C@H](C)[C@@H](C(C)C)O2)OC1=O [Bafilomycin B1]	667.1 ± 5.0		
O=C(/C=C/c1cccc(S(=O)(=O)Nc2ccccc2)c1)NO [Beleodaq (Belinostat), Belinostat]		222.9 ± 3.0	
CC(C)C[C@H](NC(=O)[C@@H](O)[C@H](N)Cc1ccccc1)C(=O)O [Bestatin (Ubenimex), Bestatin]	257.5 ± 3.0		
C=C(c1ccc(C(=O)O)cc1)c1cc2c(cc1C)C(C)(C)CCC2(C)C [Bexarotene (Targretin), Bexarotene]		334.2 ± 3.0	
Cn1cnc2c(F)c(Nc3ccc(Br)cc3F)c(C(=O)NOCCO)cc21 [Binimetinib]		264.1 ± 7.0	
Oc1c(Cl)cc(Cl)cc1Sc1cc(Cl)cc(Cl)c1O [Bithionol]	202.7 ± 5.0		
CN(CC[C@H](N)CC(=O)N[C@H]1C=C[C@H](n2ccc(N)nc2=O)O[C@@H]1C(=O)O)C(=N)N [Blasticidine (Blasticidin S), Blasticidin S]	261.9 ± 7.0		
C[C@@H]1C[C@H](C)C[C@H](C)[C@@H](O)CC(=O)O[C@H]([C@@H]2CCC[C@H]2C(=O)O)C/C=C/C=C(/C#N)[C@H](O)[C@@H](C)C1 [Borrelidin]	426.5 ± 5.0		
CC(C)C[C@H](NC(=O)[C@H](Cc1ccccc1)NC(=O)c1cnccn1)B(O)O [Bortezomib (Velcade), Bortezomib]		316.5 ± 3.0	
COC(=O)N[C@@H](C)CNc1nccc(-c2cn(C(C)C)nc2-c2cc(Cl)cc(NS(C)(=O)=O)c2F)n1 [Braftovi (Encorafenib), Encorafenib]		371.6 ± 7.0	
C[C@H]1CCC/C=C/[C@@H]2C[C@H](O)C[C@H]2[C@H](O)/C=C/C(=O)O1 [Brefeldin A]	252.9 ± 3.0		
CS(=O)(=O)OCCCCOS(C)(=O)=O [Busulfan]		182.3 ± 3.0	
CO[C@H]1C(=O)[C@]2(C)[C@@H](OC)C[C@H]3OC[C@@]3(OC(C)=O)[C@H]2[C@H](OC(=O)c2ccccc2)[C@]2(O)C[C@H](OC(=O)[C@H](O)[C@@H](NC(=O)OC(C)(C)C)c3ccccc3)C(C)=C1C2(C)C [Cabazitaxel]		635.1 ± 5.0	
COc1cc(/C=N/O)nc(-c2ccccn2)c1 [Caerulomycin A]	185.8 ± 7.0		
CCCCCOC(=O)Nc1nc(=O)n([C@@H]2O[C@H](C)[C@@H](O)[C@H]2O)cc1F [Capecitabine (Xeloda), Capecitabine]		240.5 ± 7.0	
O=c1[nH]cc(F)c(=O)[nH]1 [Carac (Fluorouracil-Topical, Tolak), Fluorouracil]		84.5 ± 5.0	
CC(C)C[C@H](NC(=O)[C@H](CCc1ccccc1)NC(=O)CN1CCOCC1)C(=O)N[C@@H](Cc1ccccc1)C(=O)N[C@@H](CC(C)C)C(=O)[C@@]1(C)CO1 [Carfilzomib (Kyprolis), Carfilzomib]		619.5 ± 3.0	
CC[C@H](C)C[C@H](C)CCCCCCCCC(=O)N[C@H]1C[C@@H](O)[C@@H](NCCN)NC(=O)[C@@H]2[C@@H](O)CCN2C(=O)[C@H]([C@H](O)CCN)NC(=O)[C@H]([C@H](O)[C@@H](O)c2ccc(O)cc2)NC(=O)[C@@H]2C[C@@H](O)CN2C(=O)[C@H]([C@@H](C)O)NC1=O [Caspofungin]			Molar volume (Table 3, antifungal drugs and other molecules): 803.3 cm^3
